Source: patent US20260274807A1 (University of Health Sciences and Pharmacy in St. Louis, priority 2023, published 2026)

Columns and labels:
ERRα = target: T1, ERRα (Homo sapiens, UniProt P11474); experiment: ERRE luciferase reporter assay in HEK293 cells transfected with pcDNA3.1 ERRα; type: cell-based; conditions: HEK293 cells transfected with ERRE reporter construct and pcDNA3.1 ERRα; compound for 24 hours; luciferase activity
T1 construct: expressed in transfected cells; host or cells: HEK293
T1 sequence (P11474 1-423): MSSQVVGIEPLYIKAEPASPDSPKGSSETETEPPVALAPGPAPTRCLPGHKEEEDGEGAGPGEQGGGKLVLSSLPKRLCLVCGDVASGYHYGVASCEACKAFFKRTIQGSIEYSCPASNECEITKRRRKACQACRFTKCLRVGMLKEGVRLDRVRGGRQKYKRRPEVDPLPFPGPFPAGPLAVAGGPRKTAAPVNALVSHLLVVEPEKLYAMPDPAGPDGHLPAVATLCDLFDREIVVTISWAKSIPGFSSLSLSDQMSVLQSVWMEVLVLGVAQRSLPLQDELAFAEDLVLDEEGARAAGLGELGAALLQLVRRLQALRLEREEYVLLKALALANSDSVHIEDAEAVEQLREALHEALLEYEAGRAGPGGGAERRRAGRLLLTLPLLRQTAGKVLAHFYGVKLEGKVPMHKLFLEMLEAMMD
Procedure: (§1) HEK293 cells were maintained in Dulbecco's modified Eagles medium (DMEM) supplemented with 10% fetal bovine serum at 37° C. under […]. […] Cells were transfected with ERRE reporter construct and pcDNA3.1 ERRα or ERRγ. Twenty-four-hours post-transfection, the cells were treated with vehicle or compound (various concentrations) for 24 hours (4 wells per dose). Luciferase activity was measured using the One-Glo Tox luciferase reporter assay system (Promega) and EC50s were calculated using GraphPad Prism software.

ERRγ = target: T2, ERRγ (Homo sapiens, UniProt P62508); experiment: ERRE luciferase reporter assay in HEK293 cells transfected with pcDNA3.1 ERRγ; type: cell-based; conditions: HEK293 cells transfected with ERRE reporter construct and pcDNA3.1 ERRγ; compound for 24 hours; luciferase activity
T2 construct: expressed in transfected cells; host or cells: HEK293
T2 sequence (P62508 1-458): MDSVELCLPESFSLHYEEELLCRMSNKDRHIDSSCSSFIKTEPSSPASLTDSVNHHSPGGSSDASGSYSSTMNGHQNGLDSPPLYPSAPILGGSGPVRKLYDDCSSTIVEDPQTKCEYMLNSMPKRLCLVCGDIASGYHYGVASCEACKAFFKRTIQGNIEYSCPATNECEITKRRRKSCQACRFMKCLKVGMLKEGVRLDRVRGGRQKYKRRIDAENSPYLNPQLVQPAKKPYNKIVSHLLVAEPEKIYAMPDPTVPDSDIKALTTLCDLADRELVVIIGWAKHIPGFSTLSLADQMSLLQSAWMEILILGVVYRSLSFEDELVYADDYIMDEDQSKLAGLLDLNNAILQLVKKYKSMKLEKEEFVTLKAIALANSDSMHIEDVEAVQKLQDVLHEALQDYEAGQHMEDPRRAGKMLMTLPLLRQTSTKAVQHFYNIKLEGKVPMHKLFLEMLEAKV
Procedure: as §1

| Structure (SMILES) | EC50 (ERRα) [nM] | EC50 (ERRγ) [nM] |
| --- | --- | --- |
| COc1ccc(-c2nnc(-c3ccccc3)s2)cc1 [Entry 1001, 2-(4-methoxyphenyl)-5-phenyl-1,3,4-thiadiazole] | < 1000 | < 1000 |
| c1ccc(-c2nnc(-c3ccccc3)s2)cc1 [Entry 1004, 2,5-diphenyl-1,3,4-thiadiazole] | < 1000 | < 1000 |
| c1ccc(-c2nnc(C3CCCCC3)s2)cc1 [Entry 1006, 2-cyclohexyl-5-phenyl-1,3,4-thiadiazole] | < 1000 | < 1000 |
| c1ccc(-c2nnc(C34CC5CC(CC(C5)C3)C4)s2)cc1 [Entry 1007, 2-((1S,3S)-adamantan-1-yl)-5-phenyl-1,3,4-thiadiazole] | < 1000 | < 1000 |
| FC(F)(F)c1cccc(-c2nnc(-c3ccccn3)s2)c1 [Entry 1008, 2-(pyridin-2-yl)-5-(3-(trifluoromethyl)phenyl)-1,3,4-thiadiazole] | < 1000 | < 1000 |
| FC(F)(F)c1ccc(-c2nnc(-c3ccccn3)s2)cc1 [Entry 1009, 2-(pyridin-2-yl)-5-(4-(trifluoromethyl)phenyl)-1,3,4-thiadiazole] | < 1000 | < 1000 |
| c1ccc(-c2nnc(-c3cnccn3)s2)cc1 [Entry 1010, 2-phenyl-5-(pyrazin-2-yl)-1,3,4-thiadiazole] | < 1000 | < 1000 |
| COc1cccc(-c2nnc(-c3ccccc3)s2)c1 [Entry 1012, 2-(3-methoxyphenyl)-5-phenyl-1,3,4-thiadiazole] | < 1000 | < 1000 |
| COc1ccccc1-c1nnc(-c2ccccc2)s1 [Entry 1013, 2-(2-methoxyphenyl)-5-phenyl-1,3,4-thiadiazole] | < 1000 | < 1000 |
| FC(F)(F)c1cccc(-c2nnc(-c3ccccc3)s2)c1 [Entry 1014, 2-phenyl-5-(3-(trifluoromethyl)phenyl)-1,3,4-thiadiazole] | 1000 to 5000 | 1000 to 5000 |
| Cc1ccccc1-c1nnc(-c2ccccc2)s1 [Entry 1015, 2-phenyl-5-(o-tolyl)-1,3,4-thiadiazole] | < 1000 | < 1000 |
| COc1ccc(-c2nnc(-c3ccc(Br)cc3)s2)cc1 [Entry 1018, 2-(4-bromophenyl)-5-(4-methoxyphenyl)-1,3,4-thiadiazole] | < 1000 | 1000 to 5000 |
| COc1ccc(-c2nnc(-c3ccco3)s2)cc1 [Entry 1019, 2-(furan-2-yl)-5-(4-methoxyphenyl)-1,3,4-thiadiazole] | < 1000 | < 1000 |
| COc1ccc(-c2nnc(-c3ccc(C)o3)s2)cc1 [Entry 1020, 2-(4-methoxyphenyl)-5-(5-methylfuran-2-yl)-1,3,4-thiadiazole] | < 1000 | < 1000 |

More lines, now with the values ahead:

| EC50 (ERRα) [nM] | EC50 (ERRγ) [nM] | Structure (SMILES) |
| --- | --- | --- |
| > 5000 | > 5000 | O=[N+]([O-])c1ccccc1-c1nnc(-c2ccc(Cl)cc2)o1 [Entry 92, 2-(4-chlorophenyl)-5-(2-nitrophenyl)-1,3,4-oxadiazole] |
| < 1000 | < 1000 | Cc1ccc(-c2nnc(-c3ccccc3)s2)cc1 [Entry 1002, 2-phenyl-5-(p-tolyl)-1,3,4-thiadiazole] |
| < 1000 | < 1000 | Cc1ccc(-c2nnc(-c3ccccc3Cl)s2)cc1 [Entry 1003, 2-(2-chlorophenyl)-5-(p-tolyl)-1,3,4-thiadiazole] |
| < 1000 | < 1000 | Cc1ccc(-c2nnc(-c3ccccc3[N+](=O)[O-])s2)cc1 [Entry 1005, 2-(2-nitrophenyl)-5-(p-tolyl)-1,3,4-thiadiazole] |
| < 1000 | < 1000 | CC(C)(C)c1ccc(-c2nnc(-c3ccccc3[N+](=O)[O-])s2)cc1 [Entry 1016, 2-(4-(tert-butyl)phenyl)-5-(2-nitrophenyl)-1,3,4-thiadiazole] |
| < 1000 | < 1000 | Clc1ccc(-c2nnc(-c3ccccc3)s2)cc1 [Entry 1017, 2-(4-chlorophenyl)-5-phenyl-1,3,4-thiadiazole] |
